Legend:
[1] = test system: lignée tumorale leucémie L 1210; experiment: In vitro cytotoxicity on L 1210 leukemia cell culture; format: cell-based; details: Mus musculus, L1210; concentration inhibiting cell proliferation by 50 p. 100, after 48 h contact; read-out: ID 50 (the source's name)
Procedure: 1) In vitro : (PAOLETTI et al., Chem. Biol. Interaction, 1979, 25, 45-58).
L'activité cytotoxique des composés de l'invention a été évaluée par des essais in vitro. Ces essais consistent à ajouter des concentrations croissantes du composé à tester à une culture cellulaire de la lignée tumorale leucémie L 1210 en phase exponentielle de croissance. Les cellules sont incubées à 37°C dans une étuve à C02 et comptées toutes les 24 heures. Le calcul de l'ID 50 (concentration du produit exprimée en micromole 1^-1 qui inhibe la prolifération cellulaire à 50 p. 100) est effectué après 48 heures de contact. Ainsi déterminées, les ID 50 des composés de l'invention sont rassemblées dans le tableau I ci-après : […]

réticulosarcome M5-M5076 = experiment: M5-M5076 reticulosarcoma test in vivo; design: species or system souris hybrides BDF1; details: for Survivants: at day J 75
Excerpt: L'activité antitumorale a été testée in vivo sur différentes tumeurs selon le protocole général suivant : Toutes les souris mâles ou femelles sont inoculées par voie intrapéritonéale au jour Jo avec une quantité déterminée de cellules tumorales viables, variable selon la tumeur.
Elles sont ensuite réparties en différents lots. Chaque lot correspondant aux animaux traités par le produit à tester à une dose déterminée est composé de lO souris. Dans ce cas, le produit à tester est dissous dans l'eau distillée et il est administré, pendant n jours (J1-Jn) variables selon le protocole choisi, par voie intrapéritonéale à raison de 0,1 ml par lO g de poids des souris traitées, les doses du produit administré étant précisées dans les tableaux ci-dessous.
Le lot "Contrôle négatif", correspondant aux animaux qui ne sont pas traités par un produit, comprend 2 √N animaux, N étant égal au nombre total de souris traitées par un produit.
Enfin, tous lés essais sont conduits parallèlement à l'étude d'un lot appelé "Contrôle positif" de 10 animaux qui est traité par une molécule active, variable selon le protocole choisi, dans les mêmes conditions que les lots traités par le produit à tester, afin de valider l'essai.
L'activité antitumorale est évaluée en considérant l'augmentation du temps de survie des animaux traités par rapport à celui des animaux du lot "Contrôle négatif" selon la formule : • Jour médian de survie des animaux traités à une T/C = dose donnée de produit x 100 • Jour médian de survie des animaux "Contrôle négatif"
Un composé est considéré comme étant actif lorsque la valeur du rapport T/C est égale ou supérieure à 125 % selon le protocole retenu. Il est toxique lorsque cette valeur est égale ou inférieure à 85 %. Le produit est également considéré comme toxique lorsque la variation pondérale, exprimée en grammes et calculée par la formule : Poids moyen du lot mesuré au jour 5 - poids moyen du même lot au jour 1, est égale ou inférieure à -4g . a) Test de la leucémie P 388 (GERAN et al., Cancer Chemother, 1972, 2, 07-57).
d) Test du réticulosarcome M5-M5076.
Les essais sont effectués avec des souris hybrides BDF1 inoculées avec 10^6 cellules de la lignée M5-M5076. Le composé à tester est administré 5 fois successivement de façon séquentielle (Jl, 5, 9, 13, 17). Le contrôle positif du test est le cyclophosphamide administré dans les mêmes conditions. Le nombre d'animaux survivants est évalué au jour J 75. Un composé est considéré comme actif lorsque le rapport T/C est supérieur ou égal à 125 %.

in vivo = experiment: in vivo; design: species or system souris; details: mouse, ip, 100 mg/kg
Procedure: Ainsi, l'administration à des souris hybrides CDF1 saines, en une injection unique par la voie intrapéritonéale, de doses croissantes des composés à tester (5 mg, 10 mg, 20 mg, 40 mg/kg) a permis de constater que, à ces doses, les produits étaient parfaitement tolérés puisque le taux de survivants était de 100 p. 100.
Dans les mêmes conditions, administrés à des souris BDF1 saines, les taux de survivants étaient de 100 p. 100 jusqu'à 100 mg/kg pour les dérivés 1, 3 et 9 et jusqu'à 200 mg/kg pour les dérivés 2 et 8.

[2] = 100 mg/kg i.p. J1, 5, 9, 13, 17
[3] = 150 mg/kg i.p. J1, 5, 9, 13, 17

| SMILES | IC50 [1] | Jour médian de survie (réticulosarcome M5-M5076; 10 mg/kg i.p. J1, 5, 9, 13, 17) | T/C % (réticulosarcome M5-M5076; 10 mg/kg i.p. J1, 5, 9, 13, 17) | Survivants (réticulosarcome M5-M5076; 10 mg/kg i.p. J1, 5, 9, 13, 17) | Jour médian de survie (réticulosarcome M5-M5076; 25 mg/kg i.p. J1, 5, 9, 13, 17) | T/C % (réticulosarcome M5-M5076; 25 mg/kg i.p. J1, 5, 9, 13, 17) | Survivants (réticulosarcome M5-M5076; 25 mg/kg i.p. J1, 5, 9, 13, 17) | Jour médian de survie (réticulosarcome M5-M5076; 50 mg/kg i.p. J1, 5, 9, 13, 17) | T/C % (réticulosarcome M5-M5076; 50 mg/kg i.p. J1, 5, 9, 13, 17) | Survivants (réticulosarcome M5-M5076; 50 mg/kg i.p. J1, 5, 9, 13, 17) | Jour médian de survie (réticulosarcome M5-M5076; [2]) | T/C % (réticulosarcome M5-M5076; [2]) | Survivants (réticulosarcome M5-M5076; [2]) | Jour médian de survie (réticulosarcome M5-M5076; [3]) | T/C % (réticulosarcome M5-M5076; [3]) | Survivants (réticulosarcome M5-M5076; [3]) | survival (in vivo) | Jour médian de survie (réticulosarcome M5-M5076; 75 mg/kg i.p. J1, 5, 9, 13, 17) | T/C % (réticulosarcome M5-M5076; 75 mg/kg i.p. J1, 5, 9, 13, 17) | Survivants (réticulosarcome M5-M5076; 75 mg/kg i.p. J1, 5, 9, 13, 17) |
| --- | --- | --- | --- | --- | --- | --- | --- | --- | --- | --- | --- | --- | --- | --- | --- | --- | --- | --- | --- | --- |
| CCN(CC)CCCNc1ncc(C)c2c1c1cnccc1n2C [Dérivé N° 4, [(diéthylamino-3 propyl-1)amino]-1 diméthyl-4,5 5-H pyrido[3',4':4,5]pyrrolo[3,2-c]pyridine] | 130 nM | 28,3 | 108% | 0 | 41,75 | 159% | 1 | 53,0 | 202% | 4 | 48,0 | 182% | 2 | 14,0 | 53% | 0 |  |  |  |  |
| Cc1cnc(NCCCN(C)C)c2c1[nH]c1ccncc12 [Dérivé N° 3, [(diméthylamino-3 propyl-1)amino]-1 méthyl-4 5-H pyrido[3',4':4,5]pyrrolo[3,2-c]pyridine] |  |  |  |  | 51,0 | 195% | 1 | 45,0 | 172% | 0 | 44,7 | 171% | 0 | 10,0 | 38% | 0 | 100% | 41,7 | 159% | 0 |

— EP0197829A1, “5H-pyrido[3',4':4,5]pyrrolo[3,2-c]pyridine derivatives, process for their preparation and their antitunour activity” (SANOFI, priority 1985, dated 1986)
